Reference: patent US11358956B2, “Compounds containing polysubstituted benzo[d][1,3]oxathiole, benzo[d][1,3]oxathiole 3-oxide or benzo[d][1,3]oxathiole 3,3-dioxide and methods/uses thereof as agonists of G protein-coupled receptor 119” (PRAMANA PHARMACEUTICALS INC., priority 2017, dated 2022)
Where two headings read alike, the source gives them in different places.

Columns and labels:
human GPR119 receptor [1] = molecular target: T1, human GPR119 receptor (Homo sapiens, UniProt Q8TDV5); assay: LANCE Ultra cAMP assay: stimulation of GPR119-mediated cAMP production in CHO cells stably expressing human GPR119 receptor; type: cell-based
T1 construct: host or cells: CHO
T1 sequence (Q8TDV5 1-335): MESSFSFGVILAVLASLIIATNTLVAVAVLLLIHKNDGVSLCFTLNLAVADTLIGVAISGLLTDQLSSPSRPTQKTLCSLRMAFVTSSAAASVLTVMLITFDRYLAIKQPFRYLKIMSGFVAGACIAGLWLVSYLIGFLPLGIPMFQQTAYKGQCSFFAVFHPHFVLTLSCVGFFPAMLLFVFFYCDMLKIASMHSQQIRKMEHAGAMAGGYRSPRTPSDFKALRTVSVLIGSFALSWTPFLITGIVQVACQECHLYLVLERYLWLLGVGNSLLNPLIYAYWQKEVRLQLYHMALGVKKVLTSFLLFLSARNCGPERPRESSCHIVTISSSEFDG
Procedure: The potency of GPR119 receptor agonists was assessed by measuring the stimulation of GPR119-mediated cAMP production with LANCE Ultra cAMP assay (Perkin Elmer, TRF0264) in CHO cells stably expressing human GPR119 receptor (Chantest, cat. #A633). CHO-GPR119 cells were cultured in DMEM/F12 medium supplemented with 10% FBS and 1% NEAA at 37° C., 5% CO2, aliquoted and frozen in liquid nitrogen.
For assay, cells were thawed in a water bath at 37° C., washed in Hank's Balanced Salt Solution (HBSS) and resuspended in Stimulation Buffer 1 (SB1) for 30 min: 5 mM HEPES, pH 7.2-7.4, 0.1% BSA in HBSS. […] The ULight-anti-cAMP antibody (Perkin Elmer, TRF0264) was added to the cell suspension making Mix [Cell suspension/4× ULight-anti-cAMP antibodies]. The resulting cell suspension Mix was plated to 384-well assay plates (Corning, white low volume, #3674) 5 µL/well. The assay plate was centrifuged 200 g, 5 sec.
Serial dilution (100×) of tested compounds were prepared in DMSO in the range of from 30 nM to 1 mM with half-log step in 384-well plates (Greiner, 781280) using Biomek 2000. 10 test concentrations in two repeats were prepared for each CRC. It was diluted 50 times in SB1 and each tested concentration was added to cells in the assay plate—5 µL/well. The assay plate was incubated 30 minutes at room temperature on a shaker, 250 rpm to allow GPR119 receptor stimulation. The cAMP level was determined according to the standard kit supplier protocol (PerkinElmer, cat. #TRF0264).
The stock solution of the Eu-cAMP tracer (Perkin Elmer, TRF0264) was diluted 1:100 in cAMP Detection Buffer (Perkin Elmer, TRF0264), making 2× working concentration and added to the assay plate, 10 μL per well. Assay plate was centrifuged 180 g, 1 sec. Then the assay plate was incubated for 60′ at room temperature on shaker, 250 rpm to allow cAMP detection. The TR-FRET signal was measured at Ex-340 nm/Em-615 and Ex-340 nm/Em-665 nm on the reader Tecan M1000. 0% of cAMP stimulation corresponds to the cells with DMSO only, 100% of cAMP stimulation corresponds to the cells with […] Forskolin. The EC50 value defined as the concentration of the drug that gives half-maximal response, were calculated using GraphPad Prizm 5.0 software with forskolin was used as references at each test. Entries 1-17 in Table 2A and entries 1-14 in Table 2B show the biological activity of certain representative compounds using the protocol as described above.

human GPR119 receptor [2] = molecular target: T1, human GPR119 receptor; assay: as above; type: cell-based; conditions: read-out: % cAMP Max. relative to forscolin
[3] = Table 2C entries 1-4, modified protocol, 500 cells/well
[4] = Table 2A entries 1-17, protocol as described (800,000 cells/mL suspension), CHO-GPR119 cells

| SMILES | EC50 (human GPR119 receptor [1]; [3]) [nM] | Emax (human GPR119 receptor [2]; [3]) [%] | EC50 (human GPR119 receptor [1]; [4]) [nM] | Emax (human GPR119 receptor [2]; Table 2A entries 1-17, protocol as described, 100% = cells with Forskolin, 0% = DMSO only) [%] |
| --- | --- | --- | --- | --- |
| NC(=O)N1CCC(COc2ccc(-c3ccc4c(c3)OCS4(=O)=O)cc2F)CC1 [Example A-20] | – | – | 10000 | – |
| NCC(=O)N1CCC(COc2ccc(-c3ccc4c(c3)OCS4(=O)=O)cc2F)CC1 [Example A-17] | – | – | 10000 | – |
| O=C(O)CN1CCC(COc2ccc(-c3ccc4c(c3)OCS4(=O)=O)cc2F)CC1 [Example A-23, 2-(4-((4-(3,3-Dioxido-2H-benzo[d][1,3]oxathiol-6-yl)-2-fluorophenyoxy) Methyl)-piperidin-1-yl)acetic Acid] | – | – | 7040 | 66 |

Now from value to molecule:

| EC50 (human GPR119 receptor [1]; [3]) [nM] | Emax (human GPR119 receptor [2]; [3]) [%] | EC50 (human GPR119 receptor [1]; [4]) [nM] | Emax (human GPR119 receptor [2]; Table 2A entries 1-17, protocol as described, 100% = cells with Forskolin, 0% = DMSO only) [%] | SMILES |
| --- | --- | --- | --- | --- |
| 33 | 25 | – | – | O=S1(=O)c2ccc(-c3ccc(OCC4CCN(c5ncc(Cl)cn5)CC4)c(F)c3)cc2OC12CCCCC2 [Example C-11, 5-chloro-2-(4-{[4-(3,3-dioxidospiro[1,3-benzoxathiole-2,1′-cyclohexan]-6-yl)-2-fluorophenoxy]methyl}piperidin-1-yl)pyrimidine] |
| 114 | 66 | – | – | O=S1(=O)c2ccc(-c3ccc(OCC4CCN(c5ncc(Cl)cn5)CC4)c(F)c3)cc2OC12CCCC2 [Example C-8, 5-chloro-2-(4-{[4-(3,3-dioxidospiro[1,3-benzoxathiole-2,1′-cyclopentan]-6-yl)-2-fluorophenoxy]methyl}piperidin-1-yl)pyrimidine] |
| 68.6 | 81 | – | – | CC1(C)Oc2cc(-c3ccc(OCC4CCN(c5ncc(Cl)cn5)CC4)c(F)c3)ccc2S1(=O)=O [Example C-5, 5-chloro-2-(4-{[4-(2,2-dimethyl-3,3-dioxido-1,3-benzoxathiol-6-yl)-2-fluorophenoxy]methyl}piperidin-1-yl)pyrimidine] |
| 29.8 | 67 | – | – | O=S1(=O)c2ccc(-c3ccc(OCC4CCN(c5ncc(Cl)cn5)CC4)c(F)c3)cc2OC12CCC2 [Example C-14, 5-chloro-2-(4-{[4-(3,3-dioxidospiro[1,3-benzoxathiole-2,1′-cyclobutan]-6-yl)-2-fluorophenoxy]methyl}piperidin-1-yl)pyrimidine] |
